Legend:
Type in all cases: in vivo
Rhipicephalus sanguineus = Rhipicephalus sanguineus in-vitro contact test, adult brown dog ticks (RHIPSA Cont); conditions: 48 h, after 48 hours, read-out: activity (efficacy: 100% means all ticks are dead or moribund); for pest or weed control at 5 µg/cm2, 500 g/ha: application rate 5 μg/cm^2 (=500 g/ha); for pest or weed control at 1 µg/cm2, 100 g/ha: application rate 1 μg/cm^2 (=100 g/ha)
How it was run: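 Compound in acetone was coated onto the inner walls of glass tubes and dried by rotation before adult brown dog ticks were exposed. Efficacy was scored at 48 h. Ticks unable to climb away from a 45–50 °C heating plate within 5 min counted as dead or moribund.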

Diabrotica balteata = Diabrotica balteata spray test; conditions: 168 h, wheat seeds, larvae, after 7 days, read-out: activity (efficacy: 100% means all seedlings have grown up like in the untreated, uninfected control); for pest or weed control at 160 µg/disc, 500 g/ha: application rate 500 g/ha (=160 μg/well); for pest or weed control at 32 µg/disc, 100 g/ha: application rate 100 g/ha (=32 μg/well)
How it was run: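 Wheat seedlings, germinated 1 day on agar, were sprayed with compound in acetone/DMF diluted in water containing emulsifier, then infested with 10-20 Diabrotica balteata larvae. After 7 days efficacy in % was scored: 100% means seedlings grew like the untreated, uninfected control; 0% means none grew.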

[1] = tested on: Aedes aegypti strain MONHEIM; assay: Aedes aegypti test (AEDSAE surface treatment & contact assay); conditions: exposure 30 minutes, 24 hours after contact, read-out: efficacy (mortality); for mortality at 4 mg/m2: surface concentration 4 mg/m^2, glazed tile; for mortality at 20 mg/m2: surface concentration 20 mg/m^2, glazed tile
How it was run: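 Compound dissolved in acetone (2 mg/ml) with 2000 ppm rapeseed oil methyl ester, pipetted onto glazed tile and dried. Adult mosquitoes exposed on the surface for 30 min; percent mortality scored 24 h after contact.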

Spodoptera frugiperda = Spodoptera frugiperda spray test; conditions: in Zea mays, 168 h, read-out: activity (mortality)
How it was run: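 Maize leaf sections were sprayed with compound formulated in acetone/DMF and diluted in water containing 1000 ppm emulsifier. Dried leaves were infested with fall armyworm larvae, and percent mortality was scored after 7 days.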

Rhipicephalus microplus [2] = assay: Rhipicephalus (Boophilus) microplus in-vitro contact test, larval cattle tick, strain Parkhurst (BOOPMI Cont); conditions: application rate 5 μg/cm^2 (=500 g/ha), tick larvae, after 48 hours, read-out: activity (efficacy: 100% means all larvae are dead or moribund)
How it was run: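 Acetone solutions dried onto glass tube walls (900 ppm giving 5 μg/cm^2); 20-50 pyrethroid-resistant Parkhurst larvae added per tube and held 48 h at 27° C., 85% relative humidity. Efficacy scored by negative geotaxis as % dead or moribund larvae.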

Rhipicephalus microplus [3] = assay: Rhipicephalus (Boophilus) microplus injection test (BOOPMI Inj); conditions: 168 h, injection into adult engorged female ticks, egg deposition after 7 days, read-out: activity (efficacy: 100% means all eggs are infertile); for pest or weed control at 0.004 mg: application rate 4 μg/tick; for pest or weed control at 0.02 mg: application rate 20 μg/tick
How it was run: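 Five engorged adult female R. microplus ticks injected into the abdomen with 1 μL of compound diluted in DMSO, then kept in a climate chamber. Fertile egg deposition checked after 7 days; eggs without visible fertility held until hatching at about 42 days. Efficacy: 100% = all eggs infertile, 0% = all fertile.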

[4] = tested on: Culex quinquefasciatus strain P00; assay: Culex quinquefasciatus test (CULXFA surface treatment & contact assay); conditions: surface concentration 20 mg/m^2, glazed tile, exposure 30 minutes, 24 hours after contact, read-out: efficacy (mortality)
Experimental: Culex quinquefasciatus Test (CULXFA Surface Treatment & Contact Assay) Solvent: Aceton+2000 ppm rapeseed oil methyl ester (RME)
(§1) In order to produce a sufficient, active ingredient containing solution it is necessary to solve the test compound in the solvent-mix (acetone at 2 mg/ml/RME 2 000 ppm). This solution is pipetted onto a glazed tile and after evaporation of the acetone, adult mosquitoes of the species Culex quinquefasciatus strain P00 are placed onto the dried surface. The exposure time is 30 minutes. Mortality in percent (%) is determined 24 hours after contact of the insects to the treated surface. 100% mortality means that all tested insects are dead, whereas 0% means that no insect died.

Ctenocephalides felis [5] = assay: Ctenocephalides felis in-vitro contact test, adult cat flea (CTECFE Cont); conditions: application rate 5 μg/cm^2 (=500 g/ha), adult cat fleas, after 48 hours, read-out: activity (efficacy: 100% means all fleas are dead or moribund)
How it was run: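 Acetone solutions coated on glass tube inner walls (900 ppm giving 5 μg/cm^2), then 5-10 adult fleas added and held 48 h at room temperature. Fleas unable to escape a 45-50° C. heating plate within 5 min scored dead or moribund; efficacy = % dead/moribund.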

Ctenocephalides felis [6] = assay: Ctenocephalides felis oral test (CTECFE Oral); conditions: 48 h, read-out: activity (mortality)
How it was run: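 About 20 unfed adult cat fleas fed through parafilm on cattle blood containing compound (DMSO concentrate diluted in blood to the desired concentration). Blood held at 37 °C, fleas at room temperature. Mortality (%) scored after 2 days.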

Myzus persicae [7] = assay: Myzus persicae spray test; conditions: in Brassica rapa, foliar, 120 h; for mortality at 100 g/ha: read-out: activity (mortality), application rate 100 g/ha, spray, Chinese cabbage leaf disks, after 5 days; for mortality at 500 g/ha: read-out: activity (mortality), application rate 500 g/ha, spray, Chinese cabbage leaf disks, after 5 days
Experimental: Myzus persicae—Spray Test Solvent: 78.0 parts by weight acetone • 1.5 parts by weight dimethylformamide Emulsifier: alkylarylpolyglycol ether To produce a suitable preparation of active compound, 1 part by weight of active compound is mixed with the stated amount of solvents and is diluted with water, containing an emulsifier concentration of 1000 ppm, to the desired concentration. Further test concentrations are prepared by dilution with emulsifier containing water.
Chinese cabbage (Brassica pekinensis) leaf disks infected with all instars of the green peach aphid (Myzus persicae), are sprayed with a preparation of the active ingredient of the desired concentration.
After 5 days mortality in % is determined. 100% means all aphids have been killed and 0% means none of the aphids have been killed.

Nezara viridula = Nezara viridula spray test; conditions: in Hordeum vulgare, 96 h, barley plants, larvae, after 4 days; for mortality at 100 g/ha: application rate 100 g/ha
How it was run: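 Barley plants infested with N. viridula larvae were sprayed with compound in acetone/DMF diluted with water containing 1000 ppm alkylarylpolyglycol ether emulsifier. Mortality (%) was scored after 4 days; 100% means all bugs killed, 0% none.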

[8] = tested on: Anopheles funestus strain FUMOZ-R; assay: Anopheles funestus test (ANPHFU surface treatment & contact assay); conditions: exposure 30 minutes, 24 hours after contact, read-out: efficacy (mortality); for mortality at 4 mg/m2: surface concentration 4 mg/m^2, glazed tile; for mortality at 20 mg/m2: surface concentration 20 mg/m^2, glazed tile
Experimental: Anopheles funestus Test (ANPHFU Surface Treatment & Contact Assay) Solvent: Aceton+2000 ppm rapeseed oil methyl ester (RME)
as §1, with “2000” for “2 000”, “Anopheles funestus” for “Culex quinquefasciatus”, “FUMOZ-R (Hunt et al., Med. Vet. Entomol. 2005 September; 19(3): 271-275)” for “P00”

[9] = tested on: Musca domestica strain WHO—N; assay: Musca domestica test (MUSCDO surface treatment & contact assay); conditions: surface concentration 20 mg/m^2, glazed tile, exposure 30 minutes, 24 hours after contact, read-out: efficacy (mortality)
How it was run: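 Compound dissolved in acetone (2 mg/ml) with 2000 ppm rapeseed oil methyl ester and pipetted onto glazed tile; after acetone evaporation, adult flies exposed to dried surface for 30 minutes. Mortality (%) scored 24 hours after contact.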

Myzus persicae [10] = assay: Myzus persicae oral test; conditions: 120 h, read-out: activity (mortality)
How it was run: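 Percent mortality was recorded at day 5, where 0% means no aphids killed. Compound prepared from an acetone concentrate diluted in water and combined with IPL41 medium containing sugar was offered to mixed-stage green peach aphids, which sucked it through a parafilm seal.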

Structure (SMILES)	pest or weed control at 5 µg/cm2, 500 g/ha (Rhipicephalus sanguineus)	pest or weed control at 160 µg/disc, 500 g/ha (Diabrotica balteata)	mortality at 20 mg/m2 [1]	mortality at 100 g/ha (Spodoptera frugiperda)	mortality at 500 g/ha (Spodoptera frugiperda)	pest or weed control at 5 µg/cm2 (Rhipicephalus microplus [2])	pest or weed control at 0.004 mg (Rhipicephalus microplus [3])	pest or weed control at 0.02 mg (Rhipicephalus microplus [3])	mortality at 20 mg/m2 [4]	pest or weed control at 5 µg/cm2 (Ctenocephalides felis [5])	mortality at 100 ppm (Ctenocephalides felis [6])	pest or weed control at 32 µg/disc, 100 g/ha (Diabrotica balteata)	mortality at 100 g/ha (Myzus persicae [7])	pest or weed control at 1 µg/cm2, 100 g/ha (Rhipicephalus sanguineus)	mortality at 20 mg/m2 [8]	further results
C[C@H](NC(=O)c1cc(Cl)cc(C(F)(F)F)c1)c1ncnn1-c1cnc(C#N)cn1 [II-1]	80%	100%	80 to 100%	100%	100%	90%	100%	100%	80 to 100%	90%	100%					mortality at 4 mg/m2 [1]: 80 to 100%
CC(C)C(=O)Nc1ccc(-n2ncnc2[C@H](C)NC(=O)c2cc(Cl)cc(C(F)(F)F)c2)nc1 [II-2, 3-chloro-N-[(1S)-1-{1-[5-(isobutyrylamino)pyridin-2-yl]-1H-1,2,4-triazol-5-yl}ethyl]-5-(trifluoromethyl)benzamide]		100%				100%	100%	100%	80 to 100%	90%	100%	100%	100%			mortality at 500 g/ha (Myzus persicae [7]): 90%; mortality at 500 g/ha (Nezara viridula; application rate 500 g/ha): 90%
C[C@H](NC(=O)c1ccc(Cl)c(C(F)(F)F)c1)c1ncnn1-c1ccc(C#N)cn1 [II-10]	100%	100%		100%	100%	100%	100%	100%			100%	100%		80%	80 to 100%	mortality at 4 mg/m2 [8]: 80 to 100%
C[C@H](NC(=O)c1cc(Cl)cc(I)c1)c1ncnn1-c1ccc(C#N)cn1 [II-23]		100%	80 to 100%	100%	100%	100%	100%	100%		80%		100%			80 to 100%	mortality at 20 mg/m2 [9]: 80 to 100%
CC(C)N(C)C(=O)c1ccc(-n2ncnc2[C@H](C)NC(=O)c2cc(Cl)cc(C(F)(F)F)c2)nc1 [II-26]	80%		80 to 100%	83%	100%	100%	100%	100%		100%				100%	80 to 100%	mortality at 500 g/ha (Myzus persicae [7]): 100%
C[C@H](NC(=O)c1cc(Cl)cc(C(F)(F)F)c1)c1ncnn1-c1cc(-n2ccc(C(F)(F)F)n2)ccn1 [II-42]		100%		100%	100%	90%	80%	0%	80 to 100%			100%			80 to 100%	
Cc1nc([C@H](C)NC(=O)c2cccc(C(F)(F)F)n2)n(-c2ccc(C#N)cn2)n1 [II-48]	100%		80 to 100%			100%	100%	100%			90%	100%		100%	80 to 100%	mortality at 4 mg/m2 [1]: 80 to 100%; mortality at 4 mg/m2 [8]: 80 to 100%
Cc1nc([C@H](C)NC(=O)c2cc(F)cc(C#N)c2)n(-c2ccc(C#N)cn2)n1 [II-105]	100%			100%		100%	100%			100%	100%	100%	90%	100%		mortality at 4 ppm (Myzus persicae [10]): 100%; mortality at 100 g/ha (Nezara viridula): 100%
Cc1nc([C@H](C)NC(=O)c2cc(OC(F)F)cc(C(F)F)c2)n(-c2ccc(C#N)cn2)n1 [II-113]	100%			100%		100%	100%			100%	100%	100%	90%	80%		mortality at 0.8 ppm (Myzus persicae [10]): 100%; mortality at 4 ppm (Myzus persicae [10]): 100%; mortality at 100 g/ha (Nezara viridula): 100%
C[C@H](NC(=O)c1cc(Cl)cc(OC(F)(F)F)c1)c1ncnn1-c1ncc(OC(F)F)cn1 [II- 30]									80 to 100%							
